Measurements: ChEMBL document CHEMBL3112539, “Synthesis of neoglycosphingolipid from methoxyamino-functionalized ceramide” (Bioorg Med Chem Lett, 2014)
The source made the active and inactive calls. The rule behind the calls is not given here.

Key:
[1] = target: T1, Endoglycoceramidase II (Rhodococcus sp) (UniProt A0ACD6B832); test: Competitive inhibition of Rhodococcus sp. recombinant endoglycoceramidase 2 hydrolytic activity assessed as lactose released from (2S,3S,4R)-2-[N-(octadecanoyl)amino]-1-{O-[beta-galactosylpyranosyl-(1->4)-beta-glucopyranosyl]}octadecane-1,3,4-triol at 0.27 mM after 15 mins by modified Park and Johnson method
[2] = target: T1, Endoglycoceramidase II (Rhodococcus sp); test: Inhibition of Rhodococcus sp. recombinant endoglycoceramidase 2 hydrolytic activity assessed as lactose released from (2S,3S,4R)-2-[N-(octadecanoyl)amino]-1-{O-[beta-galactosylpyranosyl-(1->4)-beta-glucopyranosyl]}octadecane-1,3,4-triol at 0.27 mM after 15 mins by modified Park and Johnson method
[3] = target: T1, Endoglycoceramidase II (Rhodococcus sp); test: Inhibition of Rhodococcus sp. recombinant endoglycoceramidase 2 hydrolytic activity assessed as lactose released from O-LacCer at 0.74 mM after 15 mins by modified Park and Johnson method

T1 sequence (A0ACD6B832 as listed by the source): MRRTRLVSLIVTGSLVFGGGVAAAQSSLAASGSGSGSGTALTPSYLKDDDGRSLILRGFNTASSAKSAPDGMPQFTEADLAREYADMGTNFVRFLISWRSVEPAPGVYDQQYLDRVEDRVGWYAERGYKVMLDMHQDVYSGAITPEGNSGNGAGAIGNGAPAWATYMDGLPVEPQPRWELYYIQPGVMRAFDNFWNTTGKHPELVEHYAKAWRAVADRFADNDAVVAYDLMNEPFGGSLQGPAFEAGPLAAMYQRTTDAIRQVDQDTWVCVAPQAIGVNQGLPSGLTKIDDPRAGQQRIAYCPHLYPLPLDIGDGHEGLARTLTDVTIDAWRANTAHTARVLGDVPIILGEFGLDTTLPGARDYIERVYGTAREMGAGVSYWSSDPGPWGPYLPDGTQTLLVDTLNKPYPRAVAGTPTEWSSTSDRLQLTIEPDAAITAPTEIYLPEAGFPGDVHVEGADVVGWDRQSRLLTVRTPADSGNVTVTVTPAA

inhibition [1]: Active
inhibition [2]: Active
inhibition [3]: inactive
SMILES: CCCCCCCCCCCCCCCCCC(=O)N[C@@H](CN(OC)[C@@H]1O[C@H](CO)[C@@H](O[C@@H]2O[C@H](CO)[C@H](O)[C@H](O)[C@H]2O)[C@H](O)[C@H]1O)[C@H](O)[C@H](O)CCCCCCCCCCCCCC
